This note sets out measurements from patent publication US20240175029A1, “RNA INHIBITOR FOR INHIBITING HEPATITIS B VIRUS GENE EXPRESSION AND APPLICATION THEREOF” (priority 2021, published 2024).

Assay [1] has as its system HBV HBsAg. In words: Comparison and combined use of Ky-2208 and tenofovir (TDF) in HBV transgenic (HBV-Tg) mice, HBsAg. The class given is in vivo. To be noted: Ky-2208 3 or 9 mpk sc single, TDF 15 mpk po daily, d7-d28. Here is the method: Experimental procedures: 48 HBV-Tg male mice with a body weight of 25-35 g and a week age of 8-13 w, were raised in an animal room that meets the SPF standard, with a temperature of 16-26° C., a humidity of 40-70% and circulating light (12 hours in light and dark respectively), and were free to eat and drink water. The solvent for formulation of the compound was normal saline, and the concentration of the working solution was 0.75 mg/mL. […] The experiment consisted of 6 groups, including one control group ([…]) and 5 administration groups. The drug was administered once on the day of d0, and mice in each group were subcutaneously injected with 0.04 mL/10 g of the corresponding test solution on d0. Whole blood was collected through the orbital venous plexus of mice on d0 before administration and d7, d14, d21 and d28 after administration, and centrifuged at 3000×g for 5 minutes. Supernatant was sampled on d0, d7, d14, d21 and d28 to detect HBV HBsAg.

The test system of assay [2] is HBeAg. In words: Ky-22 combined with entecavir or interferon in HepG2.2.15 cells, HBeAg. The class given is cell-based, HBV. To be noted: 72 hours, ETV 0.1-10 μM, IFN-α 10-1000 IU/mL, Ky-22 0.125 μg/mL. How it is done:
(§1) The experiment was conducted in the widely used HepG2.2.15 cell line to evaluate the inhibitory effect of the RNA inhibitor of the present invention in combination with different concentrations of entecavir (ETV) or interferon (IFN-a) on HBV.
(§2) Experimental procedures: DMEM medium containing 10% fetal bovine serum was prepared. Media containing 10 nM RNA inhibitor Ky-22 was prepared from a culture medium. HepG2.2.15 cells were inoculated at a cell density of […] and cultured in the DMEM medium with 10% fetal bovine serum at 37° C. under 5% CO2 for 24 hours, added with the drug for intervention, and incubated for 72 hours. The supernatant was sampled to detect HBsAg, HBeAg and HBV DNA. The relative percentages of HBsAg, HBeAg, and HBV DNA in the sample intervention groups were calibrated by compared with the supernatant of HepG2.2.15 cells without intervention.

Assay [3] concerns HBsAg. Description: Ky-22 combined with entecavir or interferon in HepG2.2.15 cells, HBsAg. To be noted: 72 hours, ETV 0.1-10 μM, IFN-α 10-1000 IU/mL, Ky-22 0.125 μg/mL. In kind it is cell-based, HBV. Here is the method: as §1, §2

Turning to `CC(C)OC(=O)OCOP(=O)(CO[C@H](C)Cn1cnc2c(N)ncnc21)OCOC(=O)OC(C)C.O=C(O)/C=C/C(=O)O` [TDF, Tenofovir], the “reduction of HBsAg level” value in assay [1] was “no inhibitory effect”.
For `C=C1[C@H](CO)[C@@H](O)C[C@@H]1n1cnc2c(=O)[nH]c(N)nc21` [entecavir], the “inhibitory effect on HBeAg” value in assay [2] is recorded as “no significant inhibitory effect”. Moreover, the “inhibitory effect on HBsAg” value in assay [3] is “no significant inhibitory effect”.
Take `C[C@H](Cn1cnc2c(N)ncnc21)OCP(=O)(O)O` [tenofovir (TDF), tenofovir]: in assay [1], the “reduction of HBsAg level” value is listed as “does not have the efficacy of reducing HBsAg level”.
